Where no end group is shown, it is not given here.
Key:
[1] = tested on: LN-229 glioma flank tumor; experiment: In vivo fluorescent imaging of tumor signal in LN-229 flank tumor-bearing nude mice; details: for p-value, in vivo tumor ROI mean, ICG vs SBK2-CLE-ICG: ICG 400 nmol/kg vs 300 nmol/kg SBK2-CLE-ICG; for p-value, in vivo tumor ROI mean, ICG vs SBK2-CLE-ICG / p-value, in vivo tumor ROI mean, ICG vs SBK2-ICG / p-value, in vivo tumor ROI mean, ICG vs Scram-CLE-ICG / p-value, in vivo tumor ROI mean, ICG vs Scram-ICG: Welch's t-test; for p-value, in vivo tumor ROI mean, ICG vs SBK2-ICG: ICG 400 nmol/kg vs 300 nmol/kg SBK2-ICG; for p-value, in vivo tumor ROI mean, ICG vs Scram-CLE-ICG: ICG 400 nmol/kg vs 300 nmol/kg Scram-CLE-ICG; for p-value, in vivo tumor ROI mean, ICG vs Scram-ICG: ICG 400 nmol/kg vs 300 nmol/kg Scram-ICG
Excerpt: (§1) All applicable institutional and/or NIH guidelines for the care and use of animals were followed. The Case Western Reserve University Institutional Animal Care and Use Committee reviewed and approved the animal protocols. Outbred homozygous female nude mice (Fox1^nu/Fox1^nu) were purchased from Jackson Laboratory, Bar Harbor, ME, USA. Details of the human glioblastoma LN-229 cell line have been described previously. LN-229 cells express the PTPμ biomarker and have been used in previous studies for evaluating PTPμ-targeted agents using different imaging modalities. Flank tumors were started in the right flank of mice at approximately 7 weeks of age by injecting a mixture of 2×10^6 cells and Matrigel® Matrix (Corning®, Corning Inc., Corning, NY, USA). Experiments were performed in mice 4 to 8 weeks after implanting the tumors.
(§2) The IVIS Spectrum In vivo Imaging System and Living Image analysis software, (Perkin Elmer, Hopkinton, MA, USA) were used for acquisition and analysis of mouse images. Prior to the experiment, mice were weighed, and baseline images acquired using the appropriate filter sets and the autoexposure setting. Three filter sets for excitation/emission were used: 745 nm/800 nm, 745 nm/820 nm, 745 nm/840 nm. The filter set showing highest fluorescence intensity for a fluorophore was used throughout for that dye. For ICG, 745 nm/820 nm was used and for IRDye® 800CW and Tide Fluor™ 8WS, 745 nm/800 nm was used. Agent stocks were diluted in saline or PBS to ˜100 μM and the volume needed for the desired dose of 300 nmol/kg or 400 nmol/kg calculated. Doses were loaded into polyurethane tubing and connected to a 1 mL syringe as previously described. Mice were anesthetized in an induction chamber with 2% isoflurane-oxygen and moved onto a 37° C. heated platform with a nose cone. 26-gauge veterinary catheters were placed in each tail and the preloaded tubing was connected. Agents were injected over 30 sec, catheters were removed, and animals placed in the prepared Spectrum imaging chamber. Images were acquired beginning 10 min after injecting the agents. For SBK2-CCLE-IR800 and Scram-CCLE-IR800, images were acquired every 10 min for 60 min. For the ICG-labeled and TF8WS-labeled peptides, images were acquired at 10 min, 30 min, 1 h, 2 h, 4 h, 8 h, and 24 h. At the end of the imaging time, the animals were euthanized by CO2 asphyxiation, and the tumor and other organs excised and imaged on the Spectrum.
(§3) Living Image analysis software was used for region of interest (ROI) analysis of the optical data. Images acquired for each time point consist of a fluorescent image superimposed on a photographic image. Binning was set to 1 and in vivo tumor ROIs were manually drawn based on contours visible in the black and white photograph for each timepoint. After outlining the tumor ROIs, fluorescence was measured with the built-in Spectrum function. For excised tumors, kidneys, spleen and liver, ROIs were drawn around the perimeter of the tumor or organ.
(§4) LivingImage software measures fluorescence intensity in units of radiant efficiency. For these analyses, average radiant efficiency measurements in (photons/s/cm^2/steradian)/(μW/cm^2) were used for further comparisons to account for differences in tumor and organ size. GraphPad Prism 9 was used for plots and statistical analyses. Where indicated, means for pairs of agents were compared using a two-tailed t-test with Welch's correction and statistical significance was assumed at p<0.05. Welch's correction was used to eliminate assumptions about variance between the groups being compared.

[2] = tested on: LN-229 glioma flank tumor; experiment: Ex vivo fluorescence of excised tumors; type: in vivo, mice; details: 24 h, ICG-labeled agents 300 nmol/kg, ICG 400 nmol/kg, Welch's t-test
Excerpt: as §1, §2
Living Image analysis software was used for region of interest (ROI) analysis of the optical data. […] After outlining the tumor ROIs, fluorescence was measured with the built-in Spectrum function. […]
LivingImage software measures fluorescence intensity in units of radiant efficiency. […]

[3] = Ex vivo fluorescence in excised kidneys, spleen and liver; set-up: species or system mice
Excerpt: as §2, §3, §4

[4] = Whole-body and ventral fluorescent imaging of biodistribution and clearance; type: in vivo, mice; details: for clearance via the renal system: mouse, in vivo
Excerpt: as §2

[5] = RP-HPLC and LC-MS/MS of IRDye 800CW-labeled agent stocks warmed to room temperature; type: physicochemical; details: RP-HPLC
Excerpt: The hydrophilic nature and pH sensitivity of the IRDye® 800CW precluded on-resin coupling in the organic solvents and TFA-based cleavage cocktail used for ICG-labeled molecules. IRDye® 800CW maleimide was conjugated in aqueous solution following the manufacturer's recommended protocol to cysteine residues at the N-termini of the peptides and obtained at >95% purity from PolyPeptide Group. Additional LC-MS/MS analyses using an Orbitrap Elite LC-MS, purchased via an NIH shared instrument grant, 1S10RR031537-01, were performed on these agents by the Lerner Research Institute Proteomics Core at the Cleveland Clinic.
Similar to Tide Fluor™ 8WS, the hydrophilic nature of the IRDye® 800CW results in elution of the SBK2-CCLE-IR800 at around 25 min (FIG. 7). In assessing the IRDye® 800CW-labeled agents by RP-HPLC however, a second peak appeared when the SBK2-CCLE-IR800 and Scrambled-CCLE-IR800 stocks were warmed to room temperature. LC-MS/MS analysis was performed and confirmed the identity of the main peak as belonging the agents with the closed succinimide ring, while the second peak, representing around 30% of the material, and eluting slightly earlier than the main peak was identified as containing an open succinimide ring (FIG. 1).

[6] = Kidney, 24 h, ICG-labeled agents 300 nmol/kg, ICG 400 nmol/kg, Welch's t-test
[7] = Liver, 24 h, ICG-labeled agents 300 nmol/kg, ICG 400 nmol/kg, Welch's t-test
[8] = Spleen, 24 h, ICG-labeled agents 300 nmol/kg, ICG 400 nmol/kg, Welch's t-test

Compound: CC1(C)C(/C=C/C=C/C=C/C=C2\N(CCCCS(=O)(=O)O)c3ccc4ccccc4c3C2(C)C)=[N+](CCCCS(=O)(=O)[O-])c2ccc3ccccc3c21 [ICG, indocyanine green]
- p-value, in vivo tumor ROI mean, ICG vs SBK2-CLE-ICG ([1]; 10 min): <0.001
- p-value, in vivo tumor ROI mean, ICG vs SBK2-ICG ([1]; 10 min): <0.001
- p-value, in vivo tumor ROI mean, ICG vs Scram-CLE-ICG ([1]; 10 min): <0.001
- p-value, in vivo tumor ROI mean, ICG vs Scram-ICG ([1]; 10 min): <0.001
- p-value, in vivo tumor ROI mean, ICG vs SBK2-CLE-ICG ([1]; 30 min): <0.001
- p-value, in vivo tumor ROI mean, ICG vs SBK2-ICG ([1]; 30 min): <0.001
- p-value, in vivo tumor ROI mean, ICG vs Scram-CLE-ICG ([1]; 30 min): <0.001
- p-value, in vivo tumor ROI mean, ICG vs Scram-ICG ([1]; 30 min): <0.001
- p-value, in vivo tumor ROI mean, ICG vs SBK2-CLE-ICG ([1]; 24 h): <0.001
- p-value, in vivo tumor ROI mean, ICG vs SBK2-ICG ([1]; 24 h): <0.001
- p-value, in vivo tumor ROI mean, ICG vs Scram-CLE-ICG ([1]; 24 h): ns
- p-value, in vivo tumor ROI mean, ICG vs Scram-ICG ([1]; 24 h): <0.001
- in vivo tumor fluorescence produced ([1]; ICG dye 400 nmol/kg): very little in vivo tumor fluorescence
- time of peak in vivo tumor signal ([1]; ICG dye 400 nmol/kg): ≤ 10 min
- p-value, average radiant efficiency of excised tumor vs SBK2-CLE-ICG [2]: 0.003
- p-value, average radiant efficiency of excised tumor vs SBK2-ICG [2]: <0.001
- p-value, average radiant efficiency of excised tumor vs Scram-CLE-ICG [2]: 0.019
- p-value, average radiant efficiency of excised tumor vs Scram-ICG [2]: 0.003
- p-value, average radiant efficiency of excised kidney vs SBK2-CLE-ICG [3, 6]: <0.001
- p-value, average radiant efficiency of excised kidney vs SBK2-ICG [3, 6]: <0.001
- p-value, average radiant efficiency of excised kidney vs Scram-CLE-ICG [3, 6]: 0.008
- p-value, average radiant efficiency of excised kidney vs Scram-ICG [3, 6]: 0.003
- p-value, average radiant efficiency of excised liver vs SBK2-CLE-ICG [3, 7]: 0.004
- p-value, average radiant efficiency of excised liver vs SBK2-ICG [3, 7]: <0.001
- p-value, average radiant efficiency of excised liver vs Scram-CLE-ICG [3, 7]: <0.001
- p-value, average radiant efficiency of excised liver vs Scram-ICG [3, 7]: 0.013
- p-value, average radiant efficiency of excised spleen vs SBK2-CLE-ICG [3, 8]: <0.001
- p-value, average radiant efficiency of excised spleen vs SBK2-ICG [3, 8]: <0.001
- p-value, average radiant efficiency of excised spleen vs Scram-CLE-ICG [3, 8]: <0.001
- p-value, average radiant efficiency of excised spleen vs Scram-ICG [3, 8]: 0.004
- clearance compared to ICG-conjugated peptides ([4]; ICG dye 400 nmol/kg): cleared much more rapidly

Compound: SBK2-CCLE-IR800: IRDye 800CW maleimide conjugated to N-terminal cysteine of C.GGSGGS.GEGDDFNWEQVNTLTKPTSD (SEQ ID NO: 50) ({C(IRDye 800CW maleimide)}-GGSGGSGEGDDFNWEQVNTLTKPTSD)
- difference in in vivo tumor average radiant efficiency vs Scram-CCLE-IR800 ([1]; 400 nmol/kg, every ten minutes for 60 minutes): No significant differences
- specific tumor labeling ([1]; 400 nmol/kg, versus Scrambled control agents): no specific tumor labeling
- clearance via the renal system [4]: more rapidly than expected
- second peak containing an open succinimide ring, share of the material [5]: around 30%

Compound: Scram-CCLE-IR800: IRDye 800CW maleimide conjugated to N-terminal cysteine of C.GGSGGS.GFTQPETGTDNDLWSVDNEK (SEQ ID NO: 51) ({C(IRDye 800CW maleimide)}-GGSGGSGFTQPETGTDNDLWSVDNEK)
- difference in liver fluorescence vs SBK2-CCLE-IR800 ([3]; 400 nmol/kg, 60 min, liver): No significant difference
- clearance via the renal system [4]: more rapidly than expected
- second peak containing an open succinimide ring, share of the material [5]: around 30%

— patent US20260091143A1, “NEAR-INFRARED IMAGING AGENT AND USES THEREOF” (CASE WESTERN RESERVE UNIVERSITY, priority 2022, published 2026)
